Laboratory results from patent US4118561A, “7-(Substituted)-7H-pyrrolo[3,2-f]quinazoline-1,3-diamines” (priority 1977, dated 1978).
In brackets after ≈: the same amount, converted by molar mass. Like-named read-outs stand apart in the source and are kept apart here.

How the values were obtained:
S. aureus 53-180 = test: In vitro antibacterial activity (MIC), S. aureus 53-180; conditions: Staphylococcus aureus, 53180, 18 h
N. catarrhalis 8193 = test: In vitro antibacterial activity (MIC), N. catarrhalis 8193; conditions: 18 h
mice = test: Acute toxicity in mice, i.p. single dose; type: in vivo, Charles River COBS CD Strain Albino mice, male
Protocol: (§1) Single doses of 7-(phenylmethyl)-7H-pyrrolo[3,2-f]-quinazoline-1,3-diamine (active moiety) were intraperitoneally administered in 0.5% carboxymethylcellulose at a constant dose volume of 10 ml./kg., to groups of 10 mice/dose level. (Charles River COBS CD Strain Albino mice, male, weight 21.0-25.29.) Daily observations were made on all mice for the duration of experiment (14 days). […] (95% confidence limits of 48.6-93.4) all deaths occurred 4-5 days post-drug-administration.
(§2) These effects lasted up to 6 days in the low dose animals and 14 days in those animals having received the highest dose. All mice alive on day 14 were sacrificed and necropsied.

[1] = Acute toxicity in mice, i.p. single dose; type: in vivo, Charles River COBS CD Strain Albino mice, male; conditions: mouse, in vivo, ip; mice, single dose, 14 days
Protocol: as §1, §2

P. cynomolgi = test: Activity against P. cynomolgi infections in Rhesus monkeys; type: in vivo, P. cynomolgi (infected Rhesus monkeys); conditions: Plasmodium cynomolgi, in Macaca mulatta, 168 h
[2] = Antimalarial blood schizonticidal test in mice; type: in vivo, Plasmodium berghei (infected ICR/HA Swiss mice); set-up: ΔMST (increase in mean survival time): unit: days; conditions: mouse, in vivo, sc, single dose, read-out: Highest Non-Lethal Dose
Outline: (§3)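 ICR/HA Swiss mice (18–22 g) infected i.p. with 4 × 10^7 P. berghei KBG 173-parasitized cells; single subcutaneous dose in peanut oil at 72 h post-infection, graded dosages. Survival followed 60 days; 60-day survivors counted cured, deaths before day 6 counted toxic; mean survival time compared with untreated controls.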

[3] = tested on: Plasmodium berghei KBG 173; test: Antimalarial blood schizonticidal test in mice; type: in vivo, Plasmodium berghei (infected ICR/HA Swiss mice); set-up: ΔMST (increase in mean survival time): unit: days; conditions: for ED100 / minimal effective dose: Plasmodium berghei, sc, single dose; for ED100: read-out: Lowest Dose Curing All Mice; for minimal effective dose: read-out: Min. Curing Dose; for Cure/Treat at Min. Curing Dose: at the Min. Curing Dose
Outline: as §3

S. aureus Smith = test: In vitro antibacterial activity (MIC), S. aureus Smith; conditions: Staphylococcus aureus, 18 h
Proteus mirabilis 190 = test: In vivo antibacterial synergism (mouse), Proteus mirabilis 190; set-up: species or system Proteus mirabilis (infected mice, CD-1)
Protocol: The test agents are weighed, suspended in 0.5% aqueous carboxymethyl cellulose, homogenized (glass tissue grinder) and diluted according to the design of the experiment. Mice (male, 18±1 g., CD-1 strain) are pre-weighed, pooled, infected at random intraperitoneally with a 0.5 ml. standardized suspension (LD95 ±5%) of the bacterial organism in 5% gastric mucin and treated at random with single doses of the test agents either at the time of infection or six hours after infecting. The treated groups consist of ten mice per dosage level. Deaths are recorded daily for 14 days and the PD50 (mice are treated at time of infection) and CD50 (mice are treated six hours after infecting) values are calculated by the method of Reed and Muench [Amer. J. Hyg., 27, 493 (1938)].

P. vulgaris 6896 = test: In vitro antibacterial activity (MIC), P. vulgaris 6896; conditions: Proteus vulgaris, 6896, 18 h
S. paratyphi 11737 = test: In vitro antibacterial activity (MIC), S. paratyphi 11737; type: cell-based; conditions: Salmonella enterica, 18 h
K. pneumoniae 10031 = test: In vitro antibacterial activity (MIC), K. pneumoniae 10031; conditions: Klebsiella pneumoniae, 10031, 18 h
[4] = tested on: lymphocytic leukemia P-388; test: Activity in mice against lymphocytic leukemia P-388; type: in vivo; conditions: Mus musculus, P388, ip, read-out: T/C
E. coli 9637 = test: In vitro antibacterial activity (MIC), E. coli 9637; conditions: Escherichia coli, 9637, 18 h
[5] = tested on: strains of P. berghei resistant to chloroquine, sulfones, cycloguanil, and pyrimethamine; test: Activity against resistant strains of P. berghei in mice; type: in vivo, P. berghei (infected mice)
From the text: Activity against strains of P. berghei resistant to chloroquine, sulfones, cycloguanil, and pyrimethamine, is shown by the testing of 7-(phenylmethyl)-7H-pyrrolo[3,2-f]quinazoline-1,3-diamine and 7-[(2,5-dimethylphenyl)methyl]-7H-pyrrolo[3,2-f]quinazoline-1,3-diamine in mice against such resistant strains.

SMILES: Nc1nc(N)c2c(ccc3c2ccn3Cc2ccccc2)n1 [Example 2, 7-(Phenylmethyl)-7H-pyrrolo[3,2-f]quinazoline-1,3-diamine]
- MIC (S. aureus 53-180): 1.95 µg/mL (≈ 6.74 µM)
- MIC (N. catarrhalis 8193): 0.061 µg/mL (≈ 0.211 µM)
- duration of effects (mice; animals having received the highest dose, i.p.): 14 days
- signs observed on day 2 post-drug-administration (mice; day 2, i.p. single dose): rough coats and decreased fecal elimination
- duration of effects (mice; low dose animals, i.p.): up to 6 days
- necropsy, macroscopic (mice; mice alive on day 14): Macroscopically, the tissues appeared normal
- time of deaths post-drug-administration (mice; mice, i.p., single dose): 4 to 5 days
- LD50, 95% confidence limits (mice; mice, i.p., single dose, 14 days): 48.6 to 93.4 mg/kg
- signs in all mice after i.p. injection (mice; within 1 hour after i.p. injection): decreased spontaneous motor activity, bradypnea, ptosis, and stretching with indrawn sides in all mice
- LD50 at 336 h [1]: 54.5 mg/kg
- ED50 (P. cynomolgi; po, read-out: CD50): 0.1 mg/kg
- MTD ([2]; infected mice, highest dose with no deaths for any reason): 160 mg/kg
- ED100 ([3]; 1440 h, s.c., 60-day survivors): 80 mg/kg
- minimal effective dose ([3]; this is the lowest dose tested): 20 mg/kg
- Cure/Treat at Min. Curing Dose ([3]; s.c., 60-day survivors): 2/5
- ΔMST (increase in mean survival time) ([3]; s.c., dose 20 mg. per kg.): 10.9
- MIC (S. aureus Smith): 1.95 µg/mL (≈ 6.74 µM)
- ED50 (Proteus mirabilis 190; Proteus mirabilis, 190, po, 336 h, read-out: PD50 (agent alone)): 22.5 mg/kg
- PD50 SM/Cpd. (compound part) (Proteus mirabilis 190; mice, p.o., 0 hours, with SM 1.56 mg. per kg., 20160 min): 7.78 mg. per kg.
- MIC (P. vulgaris 6896): 7.81 µg/mL (≈ 27 µM)
- MIC (S. paratyphi 11737): 1.95 µg/mL (≈ 6.74 µM)
- MIC (K. pneumoniae 10031): 1.95 µg/mL (≈ 6.74 µM)
- response vs control in vivo at 10 mg/kg [4]: 149%
- MIC (E. coli 9637): 1.95 µg/mL (≈ 6.74 µM)

SMILES: Cc1ccc(C)c(Cn2ccc3c4c(N)nc(N)nc4ccc32)c1 [Example 23, 7-[(2,5-dimethylphenyl)methyl]-7H-pyrrolo[3,2-f]quinazoline-1,3-diamine]
- MIC (S. aureus 53-180): 0.976 µg/mL (≈ 3.08 µM)
- MIC (N. catarrhalis 8193): 0.244 µg/mL (≈ 0.769 µM)
- ED50 (P. cynomolgi; Rhesus monkeys, oral, seven days, read-out: CD50 (the source's name)): 1 mg/kg
- MTD ([2]; this is the highest dose tested): 640 mg/kg
- ED100 ([3]; 1440 h, s.c., 60-day survivors): 40 mg/kg
- minimal effective dose ([3]; 1440 h, s.c., 60-day survivors): 10 mg/kg
- Cure/Treat at Min. Curing Dose ([3]; s.c., 60-day survivors): 3/5
- ΔMST (increase in mean survival time) ([3]; s.c., dose 5 mg. per kg.): 7.9
- MIC (S. aureus Smith): 3.9 µg/mL (≈ 12.3 µM)
- MIC (P. vulgaris 6896): 250 µg/mL (≈ 788 µM)
- MIC (S. paratyphi 11737): 125 µg/mL (≈ 394 µM)
- Activity against resistant strains [5]: Activity
- MIC (K. pneumoniae 10031): 1.95 µg/mL (≈ 6.14 µM)
- response vs control in vivo at 10 mg/kg ([4]; mice, I.P., 10 mg/kg): 142%
- MIC (E. coli 9637): 31.3 µg/mL (≈ 98.6 µM)
